Data taken from ChEMBL document CHEMBL3785084, “Rational modification of the lead molecule: Enhancement in the anticancer and dihydrofolate reductase inhibitory activity” (Bioorg Med Chem Lett, 2016).

Experiments:
[1] = Cytotoxicity against human NCI-ADR-RES cells after 48 hrs by sulforhodamine B assay; assay type: functional
[2] = Cytotoxicity against human Hs 578T cells after 48 hrs by sulforhodamine B assay; assay type: functional
[3] = tested on: SK-MEL-5; experiment: cells; details: Homo sapiens, SK-MEL-5, 48 h
Description: Cytotoxicity against human SK-MEL-5 cells after 48 hrs by sulforhodamine B assay

[4] = cells; details: Homo sapiens, UACC-257, 48 h
Description: Cytotoxicity against human UACC257 cells after 48 hrs by sulforhodamine B assay

[5] = cells; details: Homo sapiens, UACC-62, 48 h
Description: Cytotoxicity against human UACC62 cells after 48 hrs by sulforhodamine B assay

[6] = cells; details: Homo sapiens, IGROV-1, 48 h
Description: Cytotoxicity against human IGROV1 cells after 48 hrs by sulforhodamine B assay

[7] = cells; details: Homo sapiens, OVCAR-3, 48 h
Description: Cytotoxicity against human OVCAR3 cells after 48 hrs by sulforhodamine B assay

[8] = cells; details: Homo sapiens, OVCAR-5, 48 h
Description: Cytotoxicity against human OVCAR5 cells after 48 hrs by sulforhodamine B assay

[9] = cells; details: Homo sapiens, SK-OV-3, 48 h
Description: Cytotoxicity against human SKOV3 cells after 48 hrs by sulforhodamine B assay

[10] = tested on: 786-0; experiment: cells; details: Homo sapiens, 786-0, 48 h
Description: Cytotoxicity against human 786-0 cells after 48 hrs by sulforhodamine B assay

[11] = cells; details: Homo sapiens, CAKI-1, 48 h
Description: Cytotoxicity against human Caki1 cells after 48 hrs by sulforhodamine B assay

[12] = cells; details: Homo sapiens, RXF 393, 48 h
Description: Cytotoxicity against human RXF393 cells after 48 hrs by sulforhodamine B assay

[13] = tested on: SN12C; experiment: cells; details: Homo sapiens, 48 h
Description: Cytotoxicity against human SN12C cells after 48 hrs by sulforhodamine B assay

[14] = cells; details: Homo sapiens, PC-3, 48 h
Description: Cytotoxicity against human PC3 cells after 48 hrs by sulforhodamine B assay

[15] = cells; details: Homo sapiens, DU-145, 48 h
Description: Cytotoxicity against human DU145 cells after 48 hrs by sulforhodamine B assay

[16] = tested on: MCF7; experiment: cells; details: Homo sapiens, MCF7, 48 h
Description: Cytotoxicity against human MCF7 cells after 48 hrs by sulforhodamine B assay

[17] = tested on: MDA-MB-231; experiment: cells; details: Homo sapiens, MDA-MB-231, 48 h
Description: Cytotoxicity against human MDA-MB-231 cells after 48 hrs by sulforhodamine B assay

[18] = tested on: T47D; experiment: cells; details: Homo sapiens, 48 h
Description: Cytotoxicity against human T47D cells after 48 hrs by sulforhodamine B assay

[19] = tested on: MDA-MB-468; experiment: cells; details: Homo sapiens, MDA-MB-468, 48 h
Description: Cytotoxicity against human MDA-MB-468 cells after 48 hrs by sulforhodamine B assay

[20] = cells; details: Homo sapiens, HL-60, 48 h
Description: Cytotoxicity against human HL-60(TB) cells after 48 hrs by sulforhodamine B assay

[21] = tested on: K562; experiment: cells; details: Homo sapiens, K562, 48 h
Description: Cytotoxicity against human K562 cells after 48 hrs by sulforhodamine B assay

[22] = cells; details: Homo sapiens, MOLT-4, 48 h
Description: Cytotoxicity against human MOLT4 cells after 48 hrs by sulforhodamine B assay

[23] = cells; details: Homo sapiens, RPMI-8226, 48 h
Description: Cytotoxicity against human RPMI8226 cells after 48 hrs by sulforhodamine B assay

[24] = tested on: A549; experiment: cells; details: Homo sapiens, A549, 48 h
Description: Cytotoxicity against human A549 cells after 48 hrs by sulforhodamine B assay

[25] = cells; details: Homo sapiens, HOP-62, 48 h
Description: Cytotoxicity against human HOP62 cells after 48 hrs by sulforhodamine B assay

[26] = cells; details: Homo sapiens, HOP-92, 48 h
Description: Cytotoxicity against human HOP92 cells after 48 hrs by sulforhodamine B assay

[27] = tested on: NCI-H23; experiment: cells; details: Homo sapiens, NCI-H23, 48 h
Description: Cytotoxicity against human NCI-H23 cells after 48 hrs by sulforhodamine B assay

[28] = tested on: NCI-H460; experiment: cells; details: Homo sapiens, NCI-H460, 48 h
Description: Cytotoxicity against human NCI-H460 cells after 48 hrs by sulforhodamine B assay

[29] = tested on: NCI-H522; experiment: cells; details: Homo sapiens, NCI-H522, 48 h
Description: Cytotoxicity against human NCI-H522 cells after 48 hrs by sulforhodamine B assay

[30] = cells; details: Homo sapiens, HCC 2998, 48 h
Description: Cytotoxicity against human HCC2998 cells after 48 hrs by sulforhodamine B assay

[31] = cells; details: Homo sapiens, HCT-116, 48 h
Description: Cytotoxicity against human HCT116 cells after 48 hrs by sulforhodamine B assay

[32] = cells; details: Homo sapiens, HCT-15, 48 h
Description: Cytotoxicity against human HCT15 cells after 48 hrs by sulforhodamine B assay

[33] = tested on: HT-29; experiment: cells; details: Homo sapiens, HT-29, 48 h
Description: Cytotoxicity against human HT-29 cells after 48 hrs by sulforhodamine B assay

[34] = cells; details: Homo sapiens, SNB-75, 48 h
Description: Cytotoxicity against human SNB75 cells after 48 hrs by sulforhodamine B assay

[35] = tested on: Malme-3M; experiment: cells; details: Homo sapiens, 48 h
Description: Cytotoxicity against human MALME-3M cells after 48 hrs by sulforhodamine B assay

[36] = tested on: M14; experiment: cells; details: Homo sapiens, M14, 48 h
Description: Cytotoxicity against human M14 cells after 48 hrs by sulforhodamine B assay

[37] = read-out: LC50 (the source's name)

O=C1Nc2ccccc2/C1=C/c1cn(CC(O)Cn2cc(/C=C3\C(=O)Nc4ccccc43)c3ccccc32)c2ccccc12 (stereo not given)
GI50 [1]: 12 µM
TGI [1]: 54.5 µM
CC50 [1, 37]: > 100 µM
GI50 [2]: 2.4 µM
TGI [2]: 7.8 µM
CC50 [2, 37]: > 100 µM
GI50 [3]: 1.9 µM
TGI [3]: 3.8 µM
CC50 ([3]; read-out: LC50): 7.3 µM
GI50 [4]: 2.3 µM
TGI [4]: 4.4 µM
CC50 ([4]; read-out: LC50): 8.3 µM
GI50 [5]: 1.6 µM
TGI [5]: 3.1 µM
CC50 ([5]; read-out: LC50): 6.1 µM
GI50 [6]: 0.47 µM
TGI [6]: 1.9 µM
CC50 ([6]; read-out: LC50): 5.3 µM
GI50 [7]: 1.6 µM
TGI [7]: 3.3 µM
CC50 ([7]; read-out: LC50): 6.6 µM
GI50 [8]: 3.4 µM
TGI [8]: 4.5 µM
CC50 ([8]; read-out: LC50): 43.6 µM
GI50 [9]: 1.6 µM
TGI [9]: 3.6 µM
CC50 ([9]; read-out: LC50): 8.1 µM
GI50 [10]: 1.6 µM
TGI [10]: 3.2 µM
CC50 ([10]; read-out: LC50): 6.1 µM
GI50 [11]: 1.6 µM
TGI [11]: 3.3 µM
CC50 ([11]; read-out: LC50): 7.1 µM
GI50 [12]: 2.04 µM
TGI [12]: 3.7 µM
CC50 ([12]; read-out: LC50): 6.9 µM
GI50 [13]: 1.5 µM
TGI [13]: 3.1 µM
CC50 ([13]; read-out: LC50): 6.5 µM
GI50 [14]: 1.2 µM
TGI [14]: 2.6 µM
CC50 ([14]; read-out: LC50): 5.8 µM
GI50 [15]: 1.5 µM
TGI [15]: 2.9 µM
CC50 ([15]; read-out: LC50): 5.6 µM
GI50 [16]: 0.45 µM
TGI [16]: 1.8 µM
GI50 [17]: 1.2 µM
TGI [17]: 2.7 µM
CC50 ([17]; read-out: LC50): 5.7 µM
GI50 [18]: 1.6 µM
TGI [18]: 3.8 µM
GI50 [19]: 2.03 µM
TGI [19]: 3.7 µM
CC50 ([19]; read-out: LC50): 6.9 µM
GI50 [20]: 2.9 µM
TGI [20]: 10.9 µM
CC50 ([20]; read-out: LC50): 57.5 µM
GI50 [21]: 1.2 µM
TGI [21]: 3.5 µM
CC50 ([21]; read-out: LC50): > 100 µM
GI50 [22]: 2.5 µM
TGI [22]: 7.4 µM
CC50 ([22]; read-out: LC50): > 100 µM
GI50 [23]: 2.1 µM
TGI [23]: 5.4 µM
CC50 ([23]; read-out: LC50): > 100 µM
GI50 [24]: 1.5 µM
TGI [24]: 3.2 µM
CC50 ([24]; read-out: LC50): 6.8 µM
GI50 [25]: 1.4 µM
TGI [25]: 3.06 µM
CC50 ([25]; read-out: LC50): 6.6 µM
GI50 [26]: 1.8 µM
TGI [26]: 4.1 µM
CC50 ([26]; read-out: LC50): 9.5 µM
GI50 [27]: 1.5 µM
TGI [27]: 3.3 µM
CC50 ([27]; read-out: LC50): 7.2 µM
GI50 [28]: 0.48 µM
TGI [28]: 1.8 µM
CC50 ([28]; read-out: LC50): 6.6 µM
GI50 [29]: 1.6 µM
TGI [29]: 3.5 µM
GI50 [30]: 2.2 µM
TGI [30]: 5.2 µM
CC50 ([30]; read-out: LC50): 17.3 µM
GI50 [31]: 1.6 µM
TGI [31]: 4.1 µM
CC50 ([31]; read-out: LC50): 12.5 µM
GI50 [32]: 1.7 µM
TGI [32]: 3.7 µM
CC50 ([32]; read-out: LC50): 7.7 µM
GI50 [33]: 1.4 µM
TGI [33]: 3.5 µM
CC50 ([33]; read-out: LC50): 8.7 µM
GI50 [34]: 1.3 µM
TGI [34]: 2.9 µM
CC50 ([34]; read-out: LC50): 6.4 µM
GI50 [35]: 1.5 µM
TGI [35]: 3.2 µM
CC50 ([35]; read-out: LC50): 7.1 µM
GI50 [36]: 1.3 µM
TGI [36]: 2.8 µM
CC50 ([36]; read-out: LC50): 6.02 µM
